One series concerns murine model of RA. Conditions: cited from earlier work.
For another series, the system named is RA. The following applies: RA Phase II studies in humans; cited from earlier work.
The next series has as its target T1, SYK (Homo sapiens, UniProt P43405).
T1 construct: 2.5 nM SYK, 400 nM Biotin-Aha-Aha-KEDPDYEWPSAKK and 10 μM ATP
Kind of series: SYK Flash Plate Assay (enzyme assay). Format: biochemical.

Each structure is given as a SMILES string. pIC50: −log10 of the molar value. Bounds are passed on as bounds.

`COc1cc(Nc2ncc(F)c(Nc3ccc4c(n3)NC(=O)C(C)(C)O4)n2)cc(OC)c1OC` [Compound R406]: in the series on murine model of RA, the bone erosion result is “significantly reduced”, the clinical scores result is reported as “significant improvement of clinical scores” and the serum cytokine concentrations result was “significantly reduced serum cytokine concentrations”. In addition, in the series on RA, the “efficacy (ACR scores)” value was “efficacy (ACR scores improvement)” and the tolerability result is listed as “good tolerability”.

Regarding `COc1ccc(C(N)=O)cc1-c1cc2nccc(-c3c(OC)cccc3OC)c2o1` [Compound A62, 3-[7-(2,6-dimethoxy-phenyl)-furo[3,2-b]pyridin-2-yl]-4-methoxy-benzamide], the pIC50 against SYK is 5.52 to 6.52.

On to `COc1cc(-c2cc3nccc(-c4cc(F)cc(C(=O)N[C@@H]5CCCC[C@@H]5N)c4)c3o2)cc(OC)c1OC` [Compound A35, N-((1R,2S)-2-amino-cyclohexyl)-3-fluoro-5-[2-(3,4,5-trimethoxy-phenyl)furo[3,2-b]pyridin-7-yl]-benzamide], for which the pIC50 against SYK is 5.52 to 6.52.

In turn, `COc1cc2[nH]cnc2cc1-c1ccnc2cc(-c3cc(OC)c(OC)c(OC)c3)oc12` [Compound A87, 7-(6-methoxy-1H-benzoimidazol-5-yl)-2-(3,4,5-trimethoxy-phenyl)-furo[3,2-b]pyridine] showed a pIC50 at SYK of 5.52 to 6.52.

In the case of `N[C@H]1CCCC[C@H]1NC(=O)c1cccc(-c2ccnc3cc(-c4cccc5c4OCO5)oc23)c1` [Compound A60, N-((1R,2S)-2-amino-cyclohexyl)-3-(2-benzo[1,3]dioxol-4-yl-furo[3,2-b]pyridin-7-yl)-benzamide], at SYK, the pIC50 is 5.52 to 6.52.

At SYK, `Cc1ccc(S(N)(=O)=O)cc1-c1cc2nccc(-c3cccc(C(=O)N[C@@H]4CCCC[C@@H]4N)c3)c2o1` [Compound A50, N-((1R,2S)-2-amino-cyclohexyl)-3-[2-(2-methyl-5-sulfamoyl-phenyl)furo[3,2-b]pyridin-7-yl]-benzamide] showed a pIC50 of 5.52 to 6.52.

In turn, `COc1ccc(C(N)=O)cc1-c1cc2nccc(-c3ccc(C(=O)NCCN)cc3OC)c2o1` [Compound A95, N-(2-aminoethyl)-4-[2-(5-carbamoyl-2-methoxy-phenyl)furo[3,2-b]pyridin-7-yl]-3-methoxy-benzamide] had a pIC50 on SYK of 6.52 to 7.00.

With `COc1ccc(C(N)=O)cc1-c1cc2nccc(-c3ccnc(NC[C@H]4CCCNC4)c3)c2o1` [Compound A90, 4-methoxy-3-(7-{2-[((S)-1-piperidin-3-ylmethyl)-amino]-pyridin-4-yl}-furo[3,2-b]pyridin-2-yl)-benzamide], the pIC50 at SYK was > 7.00.

For orientation: pIC50 means the negative decadic logarithm of the IC50, by convention in mol/L.

(Values after patent publication US20150038527A1, “FUROPYRIDINE DERIVATIVES” (Merck Patent GmbH, priority 2012, published 2015).)
